Laboratory results published in publication PMC10080691, “Enzyme-Responsive Double-Locked Photodynamic Molecular Beacon for Targeted Photodynamic Anticancer Therapy” (Journal of the American Chemical Society, 2023).

How the values were obtained:
[1] = test system: A549 human lung carcinoma cells; experiment: Intracellular fluorescence by flow cytometry; assay type: cell-based
Experimental: The cellular uptake of 1 was studied using a range of cell lines with different expression levels of MMP-2, namely the MMP-2-overexpressed A549 human lung carcinoma cells[73] and U-87 MG human glioblastoma cells,[74] as well as the low MMP-2-expressed HeLa human cervical carcinoma cells[75] and HEK-293 human embryonic kidney normal cells.[76] The cells were incubated with 1 (2 μM) in a serum-free medium for 1 h and then in the neat medium for a further 6 h to provide sufficient time for enzymatic cleavage. […] Similar results were obtained by flow cytometry (Figure 5b). The quantified fluorescence intensity for A549 cells was 3.8-fold that for HEK-293 cells. […] After subsequent cleavage of the remaining GFLG linker by the intrinsic cathepsin B inside the cells, the probe was activated favorably, leading to higher intracellular fluorescence intensity.
The cells were pretreated with SB-3CT (10 μM) and/or CA-074 Me (25 μM) or simply the neat medium for 2 h, followed by incubation with 1 (2 μM) for a further 1 h. […] The fluorescence images of the cells under all these conditions were captured using a confocal laser scanning microscope. […] For the cells with pretreatment with both inhibitors, fluorescence due to 1 could hardly be seen. Similarly, for the cells being incubated with 14, the intracellular fluorescence was negligible. […]
Confocal Fluorescence Microscopic Studies […]

[2] = Stability in PBS and cathepsin B working buffer without enzymes (absorption/fluorescence spectra); assay type: physicochemical; conditions: 1 μM, PBS pH 7.4 or buffer pH 5.0 (25 mM NaOAc, 1 mM EDTA, 500 μM GSH), 0.1% Tween 80, 37 °C, 25 h

CCN(CC)c1ccc2nc3ccc(/N=N/c4ccc(N(C)CCCNC(=O)OC[C@@H]5[C@@H]6CCc7nnn(CC(=O)NCCCC[C@@H]8NC(=O)CNC(=O)[C@H](CCCCN)NC(=O)[C@H](CCCNC(=N)N)NC(=O)[C@H](C(C)C)NC(=O)CNC(=O)[C@H](CC(C)C)NC(=O)[C@@H]9CCCN9C(=O)[C@H](CCCCN)NC(=O)[C@@H](N)CSCc9cc(COc%10ccc(C%11=C%12C(C)=C(I)C(/C=C/c%13ccc(OCCOCCOCCOC)cc%13)=[N+]%12[B-](F)(F)n%12c(/C=C/c%13ccc(OCCOCCOCCOC)cc%13)c(I)c(C)c%12%11)cc%10)cc(c9)CSC[C@@H](C(N)=O)NC(=O)[C@H](CCCCN)NC(=O)[C@H](CCCCN)NC(=O)CNC(=O)[C@H](CC(C)C)NC(=O)[C@H](Cc9ccccc9)NC(=O)CNC(=O)[C@H](CCCCN)NC(=O)CNC8=O)c7CC[C@@H]65)cc4)cc3[n+](-c3ccccc3)c2c1 [compound 1]
intracellular fluorescence intensity, A549 relative to HEK-293 cells ([1]; 2 μM, 1 h in serum-free medium, then 6 h in neat medium, three independent experiments): 3.8 fold | intracellular fluorescence intensity, untreated cells relative to cells pretreated with the two inhibitors ([1]; A549, 2 μM 1 h + 6 h, SB-3CT (10 μM) and CA-074 Me (25 μM) 2 h pretreatment): 5.6 fold | stability in the absence of enzymes [2]: stable
